# Where two headings read alike, the source gives them in different places.
# Biological target: T1, human B-Raf (Homo sapiens, UniProt P15056)
# T1 construct: Flag; GST; made in house; host or cells: Sf9 insect cells (B-Raf); E. coli (MEK1-GST)
# Test: B-Raf Kinase to MEK1 ELISA
# Type: biochemical
# Conditions: for inhibition at 10 µM: read-out: % Inhib./10 uM; for IC50: median, cpd concentrations from 10 μM to 30 nM in half log dilutions, read-out: Median IC50
# From the text: TITLE: B-Raf Kinase to MEK1 ELISA
# PURPOSE: To discover B-Raf Kinase inhibitors that can inhibit growth of tumor cells which contain oncogenic forms of Receptor Tyrosine Kinases or K-Ras, or B-Raf kinase.
# Reagents: Flag/GST-tagged recombinant human B-Raf produced in Sf9 insect cells, human non-active Mek-1-GST (recombinant protein produced in E. coli); and a phospho-MEK1 specific poly-clonal Ab from Cell Signaling Technology (cat. #9121).
# B-Raf1 Kinase Assay Procedure:
# B-Raf-1 is used to phosphorylate GST-MEK1. MEK1 phosphorylation is measured by a phospho-specific antibody (from Cell Signaling Technology, cat. #9121) that detects phosphorylation of two serine residues at positions 217 and 221 on MEK1.
# B-Raf Assay Stock Solutions:
# 1. Assay Dilution Buffer (ADB): 20 mM MOPS, pH 7.2, 25 mM β-glycerol phosphate, 5 mM EGTA, 1 mM sodium orthovanadate, 1 mM dithiothreitol.
# 2. Magnesium/ATP Cocktail: 200 μM cold ATP and 40 mM magnesium chloride in ADB.
# 3. Active Kinase: Active B-Raf: used at ˜20 ng per assay point.
# 4. Non-active GST-MEK1: Use at 100 nM (50 nM final).
# 6. Anti-GST Ab (Pharmacia)
# 7. Anti-rabbit Ab/Europium conjugate (Wallac)
# 1. Add 25 μl of ADB containing B-Raf and Mek per assay (i.e. per well of a 96 well plate)
# 2. Add 25 μl of 0.2 mM ATP and 40 mM magnesium chloride in ADB.
# 3. Incubate for 60 minutes at RT in a shaking incubator.
# 4. Transfer this mixture to an anti-GST Ab coated 96 well plate (Nunc Immunosorb plates coated o/n with a-GST.
# 5. Incubate for 60 minutes at 30° C. in a shaking incubator
# 6. Wash 3× with TBST, add Anti-Phospho MEK1 (1:1000)
# 7. Incubate for 60 minutes at 30° C. in a shaking incubator
# 8. Wash 3× with TBST, add Anti-rabbit Ab/Europium conjugate (Wallac) (1:500)
# 9. Incubate for 60 minutes at 30° C. in a shaking incubator
# 10. Add 100 ul of Wallac Delfia Enhancement Solution and shake for 10 minutes.
# 11. Read plates in Wallac Victor model Plate Reader.
# 12. Collect data analyze in Excel for single point and IC50 determinations.
# Typically Raf-1 assay is run at cpd concentrations from 10 μM to 30 nM in half log dilutions. (% inhibition is determined for each cpd concentration)
# T1 sequence (P15056 whole entry): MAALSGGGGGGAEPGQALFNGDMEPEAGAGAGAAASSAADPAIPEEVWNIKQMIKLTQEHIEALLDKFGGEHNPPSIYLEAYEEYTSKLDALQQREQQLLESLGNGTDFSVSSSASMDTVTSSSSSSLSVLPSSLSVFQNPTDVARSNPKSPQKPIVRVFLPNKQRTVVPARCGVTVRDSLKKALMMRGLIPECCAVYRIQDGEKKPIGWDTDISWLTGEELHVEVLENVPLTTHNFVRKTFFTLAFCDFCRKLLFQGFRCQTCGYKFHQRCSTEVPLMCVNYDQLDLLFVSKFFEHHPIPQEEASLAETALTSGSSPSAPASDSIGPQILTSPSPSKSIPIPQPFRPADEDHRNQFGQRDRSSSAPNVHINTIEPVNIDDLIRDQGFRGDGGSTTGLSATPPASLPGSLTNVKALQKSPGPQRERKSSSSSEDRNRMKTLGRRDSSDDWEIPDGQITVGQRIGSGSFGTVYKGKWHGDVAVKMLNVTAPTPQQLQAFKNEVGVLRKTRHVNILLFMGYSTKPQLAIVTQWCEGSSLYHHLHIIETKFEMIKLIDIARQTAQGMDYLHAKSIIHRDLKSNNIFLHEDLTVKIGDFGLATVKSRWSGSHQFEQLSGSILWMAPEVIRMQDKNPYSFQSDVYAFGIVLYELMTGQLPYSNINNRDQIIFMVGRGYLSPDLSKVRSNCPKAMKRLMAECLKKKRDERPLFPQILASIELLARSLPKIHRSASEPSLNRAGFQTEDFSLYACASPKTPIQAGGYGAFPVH
Compound,inhibition at 10 µM [%],IC50 [µM],"inhibition at 10 µM (single point assay, 10 uM) [%]"
"O=C(Nc1cccc(-c2ccnc3c(C(=O)NCCN4CCCC4)cnn23)c1)c1cccc(C(F)(F)F)c1 [Example 48, N-(2-pyrrolidin-1-ylethyl)-7-(3-{[3-(trifluoromethyl)benzoyl]amino}phenyl)pyrazolo[1,5-a]pyrimidine-3-carboxamide]",43,,
"CN1CCN(CCCNC(=O)c2cnn3c(-c4cccc(NC(=O)c5cccc(C(F)(F)F)c5)c4)ccnc23)CC1 [Example 50, N-[3-(4-methylpiperazin-1-yl)propyl]-7-(3-{[3-(trifluoromethyl)benzoyl]amino}phenyl)pyrazolo[1,5-a]pyrimidine-3-carboxamide]",42,8,
"O=C(Nc1cccc(-c2ccnc3c(C(=O)NCCN4CCOCC4)cnn23)c1)c1cccc(C(F)(F)F)c1 [Example 52, N-(2-morpholin-4-ylethyl)-7-(3-{[3-(trifluoromethyl)benzoyl]amino}phenyl)pyrazolo[1,5-a]pyrimidine-3-carboxamide]",60,8,
"O=C(Nc1cccc(-c2ccnc3c(C(=O)NCCCN4CCOCC4)cnn23)c1)c1cccc(C(F)(F)F)c1 [Example 53, N-(3-morpholin-4-ylpropyl)-7-(3-{[3-(trifluoromethyl)benzoyl]amino}phenyl)pyrazolo[1,5-a]pyrimidine-3-carboxamide]",55,5,
"CN1CCCC1CCNC(=O)c1cnn2c(-c3cccc(NC(=O)c4cccc(C(F)(F)F)c4)c3)ccnc12 (stereo not shown) [Example 54, N-[2-(1-methylpyrrolidin-2-yl)ethyl]-7-(3-{[3-(trifluoromethyl)benzoyl]amino}phenyl)pyrazolo[1,5-a]pyrimidine-3-carboxamide]",32,> 10,
"O=C(Nc1cccc(-c2ccnc3c(C(=O)NCCCn4ccnc4)cnn23)c1)c1cccc(C(F)(F)F)c1 [Example 55, N-[3-(1H-imidazol-1-yl)propyl]-7-(3-{[3-(trifluoromethyl)benzoyl]amino}phenyl)pyrazolo[1,5-a]pyrimidine-3-carboxamide]",70,2.1,
"O=C(Nc1cccc(-c2ccnc3c(C(=O)NCc4ccccc4)cnn23)c1)c1cccc(C(F)(F)F)c1 [Example 57, N-benzyl-7-(3-{[3-(trifluoromethyl)benzoyl]amino}phenyl)pyrazolo[1,5-a]pyrimidine-3-carboxamide]",51,1.64,
"O=C(Nc1cccc(-c2ccnc3c(-c4ccccn4)cnn23)c1)c1cccc(C(F)(F)F)c1 [Example 59, N-[3-(3-pyridin-2-ylpyrazolo[1,5-a]pyrimidin-7-yl)phenyl]-3-(trifluoromethyl)benzamide]",37,> 10,
"O=C(Nc1cccc(-c2ccnc3c(-c4nn[nH]n4)cnn23)c1)c1cccc(C(F)(F)F)c1 [Example 60, N-{3-[3-(2H-tetrazol-5-yl)pyrazolo[1,5-a]pyrimidin-7-yl]phenyl}-3-(trifluoromethyl)benzamide]",1,> 10,
"N#Cc1c(N2CCNCC2)nn2c(-c3cccc(NC(=O)c4cccc(C(F)(F)F)c4)c3)ccnc12 [Example 62, N-[3-(3-cyano-2-piperazin-1-ylpyrazolo[1,5-a]pyrimidin-7-yl)phenyl]-3-(trifluoromethyl)benzamide]",54,,
"N#Cc1cnn2c(-c3cccc(NC(=O)c4cccc(C(F)(F)F)c4)c3)ccnc12 [Example 63, N-[3-(3-cyanopyrazolo[1,5-a]pyrimidin-7-yl)phenyl]-3-(trifluoromethyl)benzamide]",,> 10,14
"Cc1ccc(C(=O)Nc2cccc(-c3ccnc4c(C#N)c(N5CCNCC5)nn34)c2)cc1C(F)(F)F [Example 68, N-[3-(3-cyano-2-piperazin-1-ylpyrazolo[1,5-a]pyrimidin-7-yl)phenyl]-4-methyl-3-(trifluoromethyl)benzamide]",45,8.4,
"CCOC(=O)c1cnn2c(-c3cccc(NC(=O)c4cc(Cl)cc(Cl)c4)c3)ccnc12 [Example 72, ethyl 7-{3-[(3,5-dichlorobenzoyl)amino]phenyl}pyrazolo[1,5-a]pyrimidine-3-carboxylate]",4,> 10,

# Other lines, results leading:
inhibition at 10 µM [%],IC50 [µM],"inhibition at 10 µM (single point assay, 10 uM) [%]",Compound
62,5.94,,"CN(C)CCNC(=O)c1cnn2c(-c3cccc(NC(=O)c4cccc(C(F)(F)F)c4)c3)ccnc12 [Example 49, N-[2-(dimethylamino)ethyl]-7-(3-{[3-(trifluoromethyl)benzoyl]amino}phenyl)pyrazolo[1,5-a]pyrimidine-3-carboxamide]"
50,,,"CCNC(=O)c1cnn2c(-c3cccc(NC(=O)c4cccc(C(F)(F)F)c4)c3)ccnc12 [Example 51, N-ethyl-7-(3-{[3-(trifluoromethyl)benzoyl]amino}phenyl)pyrazolo[1,5-a]pyrimidine-3-carboxamide]"
60,1,,"COCCCNC(=O)c1cnn2c(-c3cccc(NC(=O)c4cccc(C(F)(F)F)c4)c3)ccnc12 [Example 56, N-(3-methoxypropyl)-7-(3-{[3-(trifluoromethyl)benzoyl]amino}phenyl)pyrazolo[1,5-a]pyrimidine-3-carboxamide]"
4,> 10,,"CCOC(=O)c1c(C)nn2c(-c3cccc(NC(=O)c4cccc(C(F)(F)F)c4)c3)ccnc12 [Example 58, Ethyl 2-methyl-7-(3-{[3-(trifluoromethyl)benzoyl]amino}phenyl)pyrazolo[1,5-a]pyrimidine-3-carboxylate]"
16,> 10,,"NC(=O)c1cnn2c(-c3cccc(NC(=O)c4cccc(C(F)(F)F)c4)c3)ccnc12 [Example 61, 7-(3-{[3-(trifluoromethyl)benzoyl]amino}phenyl)pyrazolo[1,5-a]pyrimidine-3-carboxamide]"
4,> 10,,"CCOC(=O)c1c(C)nn2c(-c3cccc(NC(=O)c4ccc(C)c(C(F)(F)F)c4)c3)ccnc12 [Example 64, ethyl 2-methyl-7-(3-{[4-methyl-3-(trifluoromethyl)benzoyl]amino}phenyl)pyrazolo[1,5-a]pyrimidine-3-carboxylate]"
30,> 10,,"Cc1ccc(C(=O)Nc2cccc(-c3ccnc4c(-c5ccccn5)cnn34)c2)cc1C(F)(F)F [Example 65, 4-methyl-N-[3-(3-pyridin-2-ylpyrazolo[1,5-a]pyrimidin-7-yl)phenyl]-3-(trifluoromethyl)benzamide]"
18,> 10,,"Cc1ccc(C(=O)Nc2cccc(-c3ccnc4c(-c5nn[nH]n5)cnn34)c2)cc1C(F)(F)F [Example 66, 4-methyl-N-{3-[3-(2H-tetrazol-5-yl)pyrazolo[1,5-a]pyrimidin-7-yl]phenyl}-3-(trifluoromethyl)benzamide]"
6,> 10,,"Cc1ccc(C(=O)Nc2cccc(-c3ccnc4c(C(N)=O)cnn34)c2)cc1C(F)(F)F [Example 67, 7-(3-{[4-methyl-3-(trifluoromethyl)benzoyl]amino}phenyl)pyrazolo[1,5-a]pyrimidine-3-carboxamide]"
13,> 10,,"Cc1ccc(C(=O)Nc2cccc(-c3ccnc4c(C#N)cnn34)c2)cc1C(F)(F)F [Example 69, N-[3-(3-cyanopyrazolo[1,5-a]pyrimidin-7-yl)phenyl]-4-methyl-3-(trifluoromethyl)benzamide]"
0,> 10,,"CCOC(=O)c1cnn2c(-c3cccc(NC(=O)c4cccc(Cl)c4)c3)ccnc12 [Example 70, Ethyl 7-{3-[(3-chlorobenzoyl)amino]phenyl}pyrazolo[1,5-a]pyrimidine-3-carboxylate]"
0,> 10,,"CCOC(=O)c1cnn2c(-c3cccc(NC(=O)c4ccc(Cl)c(Cl)c4)c3)ccnc12 [Example 71, ethyl 7-{3-[(3,4-dichlorobenzoyl)amino]phenyl}pyrazolo[1,5-a]pyrimidine-3-carboxylate]"
5,> 10,,"CCOC(=O)c1cnn2c(-c3cccc(NC(=O)c4ccc(OC)c(Cl)c4)c3)ccnc12 [Example 73, ethyl 7-{3-[(3-chloro-4-methoxybenzoyl)amino]phenyl}pyrazolo[1,5-a]pyrimidine-3-carboxylate]"

# — patent publication US20070219186A1, “Pyrazolo[1,5-A]pyrimidine derivatives and methods of use thereof” (priority 2006, published 2007)
